Experimental data published in patent US20110111016A1, “NON-DNA BASE-CONTAINING POLYNUCLEOTIDE COMPOSITIONS AND THEIR USE FOR THE MODULATION OF IMMUNE RESPONSES” (priority 2009, published 2011).

Tests used:
Assay type in all cases: cell-based
human TLR2 = molecular target: T1, human TLR2 (Homo sapiens, UniProt O60603); experiment: NF-κB activation (secreted alkaline phosphatase reporter) in HEK293 cells expressing human TLR2; settings: HEK293/hTLR2 cell line; polynucleotide final concentration 10 μg/mL; 16-20 hours
T1 construct: host or cells: HEK293
Description: (§1) Toll-like receptors (TLR) are known to interact with a number of natural and synthetic molecules that can function as immune adjuvants. Examples of these molecules are Poly (I:C) polynucleotides, lipopolysaccharide and CpG-containing polynucleotides. The interaction of non-DNA base-containing polynucleotides (SEQ ID NOs: 1-3) to interact with TLR and induce down-stream signaling was tested by assessing NF-κB activation in HEK293 cells expressing human TLR2, 3, 4, 5, 7, 8 and 9. TLR engagement was determined by measurement of secreted alkaline phosphatase, under the control of a reporter inducible by NF-κB. Appropriate positive controls were used for each TLR. The non-DNA base-containing polynucleotides were dissolved in sterile water at a concentration of 100 μg/mL, and used at a final concentration of 10 μg/mL. HEK293 cells containing the appropriate TLR and NF-κB reporting system (InvivoGen, San Diego, Calif., USA) were placed in wells of 96 well plates (25,000-50,000 cells, in a final volume of 200 μL medium designed for the detection of NF-κB induced secreted alkaline phosphatase expression), and incubated with non-DNA base-containing polynucleotides or positive controls for 16-20 hours. TLR activating activity was determined by measurement of absorbance at 650 nm wavelength using a Coulter AD340C absorbance detector. The results shown are expressed as Optical Density (OD).

human TLR5 = molecular target: T2, human TLR5 (Homo sapiens, UniProt O60602); experiment: NF-κB activation (secreted alkaline phosphatase reporter) in HEK293 cells expressing human TLR5; settings: HEK293/hTLR5 cell line; polynucleotide final concentration 10 μg/mL; 16-20 hours
T2 construct: host or cells: HEK293
Description: as §1

human TLR8 = molecular target: T3, human TLR8 (Homo sapiens, UniProt Q9NR97); experiment: NF-κB activation (secreted alkaline phosphatase reporter) in HEK293 cells expressing human TLR8; settings: HEK293/hTLR8 cell line; polynucleotide final concentration 10 μg/mL; 16-20 hours
T3 construct: host or cells: HEK293
T3 sequence (Q9NR97 27-1041): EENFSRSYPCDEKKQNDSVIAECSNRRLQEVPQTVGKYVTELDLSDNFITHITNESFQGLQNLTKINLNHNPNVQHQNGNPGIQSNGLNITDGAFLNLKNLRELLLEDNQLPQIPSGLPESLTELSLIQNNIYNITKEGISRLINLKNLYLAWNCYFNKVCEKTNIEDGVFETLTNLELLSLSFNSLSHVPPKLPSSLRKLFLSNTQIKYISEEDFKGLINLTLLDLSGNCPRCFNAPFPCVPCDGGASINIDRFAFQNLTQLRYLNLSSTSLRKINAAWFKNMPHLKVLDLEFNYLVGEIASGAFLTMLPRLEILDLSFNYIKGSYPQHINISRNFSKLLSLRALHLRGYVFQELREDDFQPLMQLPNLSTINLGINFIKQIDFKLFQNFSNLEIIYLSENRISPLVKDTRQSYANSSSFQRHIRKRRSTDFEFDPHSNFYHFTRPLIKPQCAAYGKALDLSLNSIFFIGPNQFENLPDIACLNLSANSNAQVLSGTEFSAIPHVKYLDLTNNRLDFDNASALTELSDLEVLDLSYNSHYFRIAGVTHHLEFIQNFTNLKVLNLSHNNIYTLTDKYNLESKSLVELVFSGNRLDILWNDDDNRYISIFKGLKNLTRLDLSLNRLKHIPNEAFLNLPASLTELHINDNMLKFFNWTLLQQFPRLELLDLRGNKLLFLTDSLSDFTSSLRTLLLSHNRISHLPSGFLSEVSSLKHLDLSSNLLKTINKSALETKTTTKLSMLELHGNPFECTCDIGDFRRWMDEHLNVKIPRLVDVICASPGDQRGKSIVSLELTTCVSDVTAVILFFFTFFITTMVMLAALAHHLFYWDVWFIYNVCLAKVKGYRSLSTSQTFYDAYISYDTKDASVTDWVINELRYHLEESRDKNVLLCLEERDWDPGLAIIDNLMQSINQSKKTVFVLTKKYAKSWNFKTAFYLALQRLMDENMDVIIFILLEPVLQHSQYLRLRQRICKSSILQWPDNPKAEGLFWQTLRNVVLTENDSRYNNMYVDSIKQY
Description: as §1, with “The interaction of non-DNA base-containing polynucleotides (SEQ ID NOs: 1-3) to interact with TLR and induce down-stream signaling was tested by assessing NF-κB activation in HEK293 cells expressing human TLR2, 3, 4, 5, 7, 8 and 9.” left out

NF-κB control cells = experiment: NF-κB reporter control cells (secreted alkaline phosphatase); settings: polynucleotide final concentration 10 μg/mL, 16-20 hours
Description: as §1

T2 sequence (O60602 21-858): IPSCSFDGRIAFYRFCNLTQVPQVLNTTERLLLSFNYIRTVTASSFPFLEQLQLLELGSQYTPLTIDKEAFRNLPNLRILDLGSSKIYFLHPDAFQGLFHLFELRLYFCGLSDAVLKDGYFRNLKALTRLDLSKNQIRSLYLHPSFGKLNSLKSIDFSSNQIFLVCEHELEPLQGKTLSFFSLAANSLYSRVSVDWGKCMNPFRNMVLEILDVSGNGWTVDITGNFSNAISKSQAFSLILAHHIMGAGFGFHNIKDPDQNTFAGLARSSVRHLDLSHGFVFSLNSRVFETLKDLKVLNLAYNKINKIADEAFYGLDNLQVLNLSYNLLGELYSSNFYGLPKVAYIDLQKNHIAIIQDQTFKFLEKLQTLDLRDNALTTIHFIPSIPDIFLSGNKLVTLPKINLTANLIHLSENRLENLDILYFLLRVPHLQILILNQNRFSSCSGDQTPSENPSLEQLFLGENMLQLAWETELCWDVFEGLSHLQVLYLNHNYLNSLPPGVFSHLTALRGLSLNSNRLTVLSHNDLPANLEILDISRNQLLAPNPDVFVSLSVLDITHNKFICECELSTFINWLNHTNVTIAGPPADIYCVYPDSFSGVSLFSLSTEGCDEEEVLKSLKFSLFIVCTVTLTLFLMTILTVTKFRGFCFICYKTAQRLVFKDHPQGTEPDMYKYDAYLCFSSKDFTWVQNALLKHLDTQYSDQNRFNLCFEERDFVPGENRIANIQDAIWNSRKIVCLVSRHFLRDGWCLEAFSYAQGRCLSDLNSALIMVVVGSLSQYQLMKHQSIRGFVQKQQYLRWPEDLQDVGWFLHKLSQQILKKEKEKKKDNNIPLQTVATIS
T1 sequence (O60603 21-784): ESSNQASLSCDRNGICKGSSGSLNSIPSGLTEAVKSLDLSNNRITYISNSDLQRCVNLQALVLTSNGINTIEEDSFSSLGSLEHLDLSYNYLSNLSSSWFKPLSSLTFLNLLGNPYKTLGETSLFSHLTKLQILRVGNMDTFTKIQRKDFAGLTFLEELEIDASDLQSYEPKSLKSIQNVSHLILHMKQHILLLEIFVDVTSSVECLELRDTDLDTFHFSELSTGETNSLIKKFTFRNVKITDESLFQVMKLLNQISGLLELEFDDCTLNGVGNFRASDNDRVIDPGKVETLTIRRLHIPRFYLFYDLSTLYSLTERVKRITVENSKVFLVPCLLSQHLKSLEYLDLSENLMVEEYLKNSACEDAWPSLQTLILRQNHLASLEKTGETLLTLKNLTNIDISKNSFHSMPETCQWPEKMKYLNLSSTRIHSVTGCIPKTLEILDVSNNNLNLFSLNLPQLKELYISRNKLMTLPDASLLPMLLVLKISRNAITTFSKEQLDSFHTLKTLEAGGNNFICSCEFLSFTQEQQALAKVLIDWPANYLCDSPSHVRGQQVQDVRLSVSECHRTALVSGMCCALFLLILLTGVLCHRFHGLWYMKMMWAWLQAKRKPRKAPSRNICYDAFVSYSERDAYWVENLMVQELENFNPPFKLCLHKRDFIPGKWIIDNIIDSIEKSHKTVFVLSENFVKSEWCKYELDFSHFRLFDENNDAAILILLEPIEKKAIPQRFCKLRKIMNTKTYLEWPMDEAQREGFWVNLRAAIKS

Row | Substance | TLR activation, Optical Density at 650 nm, hTLR2 (human TLR2) | TLR activation, Optical Density at 650 nm, hTLR5 (human TLR5) | TLR activation, Optical Density at 650 nm, hTLR8 (human TLR8) | Optical Density at 650 nm, NF-κB control cells (NF-κB control cells)
1 | IIGTII [SEQ ID NO: 3] | 0.095 | 0.155 | 0.128 | 0.074
2 | NebGGTGNeb (DNA NGGTGN; Nebularine at both ends, sugar and linkages not given here, further chemistry not given here) [SEQ ID NO: 1, 5′-OH, 3′-OH non-DNA base-containing polynucleotide] | 0.093 | 0.158 | 0.118 | 0.078
3 | UUGTUU [SEQ ID NO: 2] | 0.095 | 0.143 | 0.120 | 0.076
